One block for each compound: values may come before it. The source made the active and inactive calls. The rule behind the calls is not given here.
Tests used:
[1] = Cytotoxicity against human H460 cells assessed as cell viability after 48 hrs by MTT assay; assay type: functional, cell-based; conditions: NCI-H460, 48 h
[2] = Cytotoxicity against human SKOV3 cells assessed as cell viability after 48 hrs by MTT assay; assay type: functional, cell-based; conditions: SK-OV-3, 48 h
HepG2 [3] = experiment: Cytotoxicity against human HepG2 cells assessed as cell viability after 48 hrs by MTT assay; assay type: functional, cell-based; conditions: HepG2, 48 h
[4] = Aqueous solubility of the compound; assay type: physicochemical; conditions: water (aqueous)
Serum [5] = experiment: Stability of the compound in Wistar rat serum assessed as prodrug degradation after 6 hrs; assay type: ADME, cell-free
[6] = Antitumor activity against human SKOV3 cells xenografted in BALB/C mouse assessed as inhibition ratio at 10 mg/kg, iv qd relative to control; assay type: functional; conditions: SK-OV-3
NCI-H460 = experiment: Antitumor activity against human H460 cells xenografted in BALB/C mouse assessed as mouse survival at 20 mg/kg, ip qd relative to control; assay type: functional, organism-based; parameters: dose 20 mg/kg
Serum [7] = experiment: Stability of the compound in Wistar rat serum assessed as prodrug degradation after 24 hrs; assay type: ADME, cell-free
[8] = Antitumor activity against human H460 cells xenografted in BALB/C mouse assessed as inhibition ratio at 20 mg/kg, ip qd relative to control; assay type: functional; conditions: NCI-H460, ip, route intraperitoneal
SK-OV-3 [9] = experiment: Antitumor activity against human SKOV3 cells xenografted in BALB/C mouse assessed as mouse survival at 10 mg/kg, iv qd relative to control; assay type: functional, organism-based; parameters: dose 10 mg/kg
SK-OV-3 [10] = experiment: Antimitotic effect in human SKOV3 cells assessed as increase in cyclin B level by Western blot analysis; assay type: functional, cell-based
HepG2 [11] = experiment: Disruption of microtubule organization in human HepG2 cells at 500 nM after 12 hrs by DAPI staining-based fluorescence microscopy; assay type: functional, cell-based
SK-OV-3 [12] = experiment: Induction of cell cycle arrest in human SKOV3 cells assessed as accumulation at G2 phase at 500 nM after 24 hrs by FCM analysis (reference value: 15.07%); assay type: functional
SK-OV-3 [13] = experiment: Induction of MAPK phosphorylation in human SKOV3 cells at 500 nM after 24 hrs by Western blot analysis; assay type: functional, cell-based
SK-OV-3 [14] = experiment: Induction of cell cycle arrest in human SKOV3 cells assessed as accumulation at G1 phase at 500 nM after 24 hrs by FCM analysis (reference value: 60.84%); assay type: functional
SK-OV-3 [15] = experiment: Induction of cell cycle arrest in human SKOV3 cells assessed as accumulation at G1 phase at 100 nM after 24 hrs by FCM analysis (reference value: 60.84%); assay type: functional
Tubulin (Homo sapiens) [16] = biological target: T1, Tubulin (Homo sapiens) (UniProt P68371+Q9H4B7+P0DPH7+P68366+Q13509+Q71U36+P04350+Q3ZCM7+P07437+P68363+Q9BQE3+Q6PEY2+Q13885+Q9BVA1+Q9BUF5); experiment: Inhibition of tubulin polymerization (unknown origin) at 5 uM by cell-free tubulin polymerization assay; assay type: protein-complex assay
Tubulin (Homo sapiens) [17] = biological target: T1, Tubulin (Homo sapiens); experiment: Inhibition of tubulin polymerization in human SKOV3 cells assessed as increase in depolymerized (soluble) tubulin level at 0.1 to 1 uM after 24 hrs by Western blot analysis; assay type: cell-based; conditions: SK-OV-3
SK-OV-3 [18] = experiment: Antimitotic effect in human SKOV3 cells assessed as decrease in p-cdc2 level by Western blot analysis; assay type: functional, cell-based
SK-OV-3 [19] = experiment: Induction of cell cycle arrest in human SKOV3 cells assessed as accumulation at G1 phase at 50 nM after 24 hrs by FCM analysis (reference value: 60.84%); assay type: functional
HepG2 [20] = experiment: Disruption of microtubule organization in human HepG2 cells at 100 nM after 12 hrs by DAPI staining-based fluorescence microscopy; assay type: functional, cell-based
SK-OV-3 [21] = experiment: Induction of cell cycle arrest in human SKOV3 cells assessed as accumulation at G2/M phase at 100 nM after 24 hrs by FCM analysis (reference value: 15.30%); assay type: functional
Tubulin (Homo sapiens) [22] = biological target: T1, Tubulin (Homo sapiens); experiment: Inhibition of tubulin polymerization (unknown origin) at 5 to 10 uM by cell-free tubulin polymerization assay; assay type: protein-complex assay
SK-OV-3 [23] = experiment: Induction of cell cycle arrest in human SKOV3 cells assessed as accumulation at G2 phase at 100 nM after 24 hrs by FCM analysis (reference value: 15.07%); assay type: functional
SK-OV-3 [24] = experiment: Antimitotic effect in human SKOV3 cells assessed as decrease in cdc2 level by Western blot analysis; assay type: functional, cell-based
SK-OV-3 [25] = experiment: Induction of cell cycle arrest in human SKOV3 cells assessed as accumulation at S phase at 100 nM after 24 hrs by FCM analysis (reference value: 24.09%); assay type: functional
SK-OV-3 [26] = experiment: Antimitotic effect in human SKOV3 cells assessed as decrease in cdc25 level by Western blot analysis; assay type: functional, cell-based
SK-OV-3 [27] = experiment: Induction of cell cycle arrest in human SKOV3 cells assessed as accumulation at G2/M phase at 500 nM after 24 hrs by FCM analysis (reference value: 15.30%); assay type: functional
SK-OV-3 [28] = experiment: Induction of cell cycle arrest in human SKOV3 cells assessed as accumulation at G2 phase at 50 nM after 24 hrs by FCM analysis (reference value: 15.07%); assay type: functional
Rattus norvegicus = experiment: Prodrug conversion in rat assessed as 4-(4-ethoxyphenyl)-5-(3,4,5-trimethoxyphenyl)thiazol-2-amine in plasma measured as half life at 10 mg/kg, iv; assay type: ADME, organism-based; parameters: dose 10 mg/kg, route intravenous; conditions: in vivo
Tubulin (Homo sapiens) [29] = biological target: T1, Tubulin (Homo sapiens); experiment: Inhibition of tubulin polymerization in human SKOV3 cells assessed as increase in polymerized (insoluble) tubulin level at 0.1 to 1 uM after 24 hrs by Western blot analysis; assay type: cell-based; conditions: SK-OV-3
SK-OV-3 [30] = experiment: Induction of apoptosis in human SKOV3 cells assessed as PARP cleavage at 100 to 1000 nM after 48 hrs by Western blot analysis; assay type: functional, cell-based
SK-OV-3 [31] = experiment: Induction of cell cycle arrest in human SKOV3 cells assessed as accumulation at S phase at 500 nM after 24 hrs by FCM analysis (reference value: 24.09%); assay type: functional
SK-OV-3 [32] = experiment: Induction of apoptosis in human SKOV3 cells assessed as decrease in Bcl-2/Bax ratio at 100 to 1000 nM after 48 hrs by Western blot analysis; assay type: functional, cell-based
Tubulin (Homo sapiens) [33] = biological target: T1, Tubulin (Homo sapiens); experiment: Displacement of colchicine from tubulin (unknown origin) after 1 hr by fluorescence based competitive tubulin-binding assay; assay type: protein-complex assay
SK-OV-3 [34] = experiment: Induction of apoptosis in human SKOV3 cells assessed as decrease in pro-caspase-3 protein level at 100 to 1000 nM after 48 hrs by Western blot analysis; assay type: functional, cell-based
SK-OV-3 [35] = experiment: Induction of cell cycle arrest in human SKOV3 cells assessed as accumulation at S phase at 50 nM after 24 hrs by FCM analysis (reference value: 24.09%); assay type: functional
SK-OV-3 [36] = experiment: Induction of apoptosis in human SKOV3 cells assessed as decrease in pro-caspase-9 protein level at 100 to 1000 nM after 48 hrs by Western blot analysis; assay type: functional, cell-based
SK-OV-3 [37] = experiment: Induction of cell cycle arrest in human SKOV3 cells assessed as accumulation at G2/M phase after 24 hrs by FCM analysis; assay type: functional, cell-based

Compound: CCOc1ccc(-c2nc(NC(=O)[C@@H](N)CCSC)sc2-c2cc(OC)c(OC)c(OC)c2)cc1
IC50 [1]: > 2000 nM
IC50 [2]: 380 nM
IC50 (HepG2 [3]): 520 nM

solubility [4]: < 100 µM
Compound: CCOc1ccc(-c2nc(N)sc2-c2cc(OC)c(OC)c(OC)c2)cc1
IC50 [1]: 200 nM
IC50 [2]: 10 nM
IC50 (HepG2 [3]): 210 nM

solubility [4]: 554 µM
Drug degradation (Serum [5]): 70.78%
Drug degradation (Serum [7]): 91.1%
Compound: CCOc1ccc(-c2nc(NC(=O)[C@H](N)CC(C)C)sc2-c2cc(OC)c(OC)c(OC)c2)cc1.Cl
IC50 [1]: 190 nM
inhibition in vivo at 10 mg/kg [6]: 33.1%
IC50 [2]: 90 nM
Activity (NCI-H460): Active
IC50 (HepG2 [3]): 140 nM
inhibition in vivo at 20 mg/kg [8]: 52.6%
Activity (SK-OV-3 [9]): Active

solubility [4]: 436 µM
Drug degradation (Serum [5]): 45.85%
Drug degradation (Serum [7]): 70.21%
Compound: CCOc1ccc(-c2nc(NC(=O)[C@@H](N)Cc3ccccc3)sc2-c2cc(OC)c(OC)c(OC)c2)cc1.Cl
IC50 [1]: > 2000 nM
IC50 [2]: 100 nM
Activity (NCI-H460): Active
IC50 (HepG2 [3]): 90 nM
inhibition in vivo at 20 mg/kg [8]: 46.1%

Compound: CCOc1ccc(-c2nc(NC(=O)[C@H](N)Cc3ccccc3)sc2-c2cc(OC)c(OC)c(OC)c2)cc1
IC50 [1]: > 2000 nM
IC50 [2]: > 2000 nM
IC50 (HepG2 [3]): 600 nM

Compound: CCOc1ccc(-c2nc(NC(=O)C(C)(C)N)sc2-c2cc(OC)c(OC)c(OC)c2)cc1
IC50 [1]: > 2000 nM
IC50 [2]: 900 nM
IC50 (HepG2 [3]): 600 nM

Compound: CCOc1ccc(-c2nc(NC(=O)[C@H]3CCCN3)sc2-c2cc(OC)c(OC)c(OC)c2)cc1
IC50 [1]: > 2000 nM
IC50 [2]: 510 nM
IC50 (HepG2 [3]): 290 nM

solubility [4]: > 10000 µM
inhibition (Tubulin (Homo sapiens) [16]): Active
inhibition (Tubulin (Homo sapiens) [17]): Active
Drug degradation (Serum [5]): 12.77%
inhibition (Tubulin (Homo sapiens) [22]): Active
Drug degradation (Serum [7]): 38.23%
t1/2 (Rattus norvegicus): 2.93 h
inhibition (Tubulin (Homo sapiens) [29]): Active
inhibition (Tubulin (Homo sapiens) [33]): Dose-dependent effect
Compound: CCOc1ccc(-c2nc(NC(=O)[C@@H](N)C(C)C)sc2-c2cc(OC)c(OC)c(OC)c2)cc1.Cl
Activity (SK-OV-3 [10]): Active
Activity (HepG2 [11]): Active
Activity (SK-OV-3 [12]): 94.51%
Activity (SK-OV-3 [13]): Active
IC50 [1]: 200 nM
Activity (SK-OV-3 [14]): 1.22%
Activity (SK-OV-3 [15]): 43.5%
inhibition (SK-OV-3 [18]): Active
Activity (SK-OV-3 [19]): 55.67%
Activity (HepG2 [20]): Active
Activity (SK-OV-3 [21]): 41.4%
Activity (SK-OV-3 [23]): 40.71%
inhibition (SK-OV-3 [24]): Active
inhibition in vivo at 10 mg/kg [6]: 43.1%
Activity (SK-OV-3 [25]): 15.49%
IC50 [2]: 420 nM
inhibition (SK-OV-3 [26]): Active
Activity (NCI-H460): Active
Activity (SK-OV-3 [27]): 93.1%
Activity (SK-OV-3 [28]): 10.22%
Activity (SK-OV-3 [30]): Active
IC50 (HepG2 [3]): 390 nM
Activity (SK-OV-3 [31]): 3.97%
Activity (SK-OV-3 [32]): Active
inhibition in vivo at 20 mg/kg [8]: 55%
Activity (SK-OV-3 [34]): Active
Activity (SK-OV-3 [9]): Active
Activity (SK-OV-3 [35]): 34.11%
Activity (SK-OV-3 [36]): Active
Activity (SK-OV-3 [37]): Dose-dependent effect

solubility [4]: > 10000 µM
Drug degradation (Serum [5]): 93.03%
Drug degradation (Serum [7]): 99.53%
Compound: CCOc1ccc(-c2nc(NC(=O)[C@H](C)N)sc2-c2cc(OC)c(OC)c(OC)c2)cc1.Cl
IC50 [1]: 210 nM
inhibition in vivo at 10 mg/kg [6]: 28.7%
IC50 [2]: 460 nM
Activity (NCI-H460): Active
IC50 (HepG2 [3]): 430 nM
inhibition in vivo at 20 mg/kg [8]: 56.6%
Activity (SK-OV-3 [9]): Active

solubility [4]: > 10000 µM
Drug degradation (Serum [5]): 17.43%
Drug degradation (Serum [7]): 25.92%
Compound: CCOc1ccc(-c2nc(NC(=O)CN)sc2-c2cc(OC)c(OC)c(OC)c2)cc1.Cl
IC50 [1]: 210 nM
inhibition in vivo at 10 mg/kg [6]: 17.6%
IC50 [2]: 200 nM
Activity (NCI-H460): Active
IC50 (HepG2 [3]): 260 nM
inhibition in vivo at 20 mg/kg [8]: 51.1%
Activity (SK-OV-3 [9]): Active

solubility [4]: 458 µM
Drug degradation (Serum [5]): 12.54%
Drug degradation (Serum [7]): 16.55%
Compound: CCOc1ccc(-c2nc(NC(=O)[C@@H]3CCCN3)sc2-c2cc(OC)c(OC)c(OC)c2)cc1.Cl
IC50 [1]: > 2000 nM
IC50 [2]: 80 nM
Activity (NCI-H460): Active
IC50 (HepG2 [3]): 110 nM
inhibition in vivo at 20 mg/kg [8]: 39.4%

solubility [4]: 259 µM
Drug degradation (Serum [5]): 39.46%
Drug degradation (Serum [7]): 42.56%
Compound: CCOc1ccc(-c2nc(NC(=O)C(N)COCc3ccccc3)sc2-c2cc(OC)c(OC)c(OC)c2)cc1.Cl (centres undefined)
IC50 [1]: > 2000 nM
IC50 [2]: 300 nM
Activity (NCI-H460): Active
IC50 (HepG2 [3]): 470 nM
inhibition in vivo at 20 mg/kg [8]: 44.8%

From ChEMBL document CHEMBL3425422, “Discovery of a potent microtubule-targeting agent: Synthesis and biological evaluation of water-soluble amino acid prodrug of combretastatin A-4 derivatives” (Bioorg Med Chem Lett, 2015)
